Source: US6569878B1, “Substituted 4-amino-thiazol-2-yl compounds as cyclin-dependent kinase inhibitors” (Agouron Pharmaceuticals Inc., priority 1997, dated 2003)
Counter-ions that a name gives are not always drawn.

What was measured:
[1] = biological target: T1, complex of human CDK4 and cyclin D3 (Homo sapiens, UniProt P11802); assay: Inhibition of CDK4/cyclin D retinoblastoma kinase activity (D-type cyclin is D3); type: biochemical; settings: superscript a: D-type cyclin is D3; apparent Ki; read-out: Ki CDK 4/D
T1 construct: made in house; host or cells: insect cells, co-infected with baculovirus
How it was run: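 Apparent Ki derived by fitting background-corrected activity to competitive (or, for tight binders, competitive tight-binding) equations with measured ATP Km. Rb phosphorylation by radiolabelled ATP was measured at 30°C, 20 min standard or 60 min at 5 nM complex for tight binders, via nitrocellulose capture and phosphorimager.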

CDK2/cyclin A = biological target: T2, CDK2/cyclin A (Homo sapiens, UniProt P24941); assay: Inhibition of CDK2/cyclin A retinoblastoma kinase activity; type: biochemical; settings: read-out: Ki CDK 2/A
T2 construct: made in house; host or cells: CDK2: insect cells (baculovirus); cyclin A: E. coli, then limited proteolysis
How it was run: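 Baculovirus-expressed CDK2 with excess proteolyzed cyclin A (or purified complex), 150 nM or 5 nM, phosphorylating an Rb fragment with 25 μM [32/33P]ATP, pH 7.4, 30° C, 20 min. Filter-captured radioactivity by phosphorimager; apparent Ki from fits to competitive or tight-binding competitive inhibition using measured ATP Km.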

[2] = biological target: T3, human CDK1 (cdc2) and cyclin B (Homo sapiens, UniProt P06493); assay: Inhibition of CDK1(cdc2)/cyclin B histone H1 kinase activity; type: biochemical; settings: read-out: Ki CDK 1/B
T3 construct: purchased New England Biolabs (Beverly Mass.)
How it was run: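 CDK1/cyclin B (commercial, or CDK1/GST-cyclin B1 from co-infected insect cells) phosphorylated histone H1 with 25 μM [32/33P]ATP at pH 7.4, 30° C for 20 min, 2% DMSO. Product captured on phosphocellulose and read by phosphorimager; apparent Ki from competitive or tight-binding fits, with Km for ATP determined.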

HCT116 = assay: Inhibition of cell growth, MTT assay, HCT116; type: cell-based, human; settings: Homo sapiens, HCT-116
How it was run: (§1)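 Cells rested 4 h after plating, then exposed to graded compound concentrations in 0.5% (v/v) DMSO for four to six days (cell-type dependent) at 37° C, 5% CO2. Viability was read by MTT (0.2 mg/mL final, 4 h at 37° C), with DMSO-solubilized formazan measured at 540 nm.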

U2-OS = assay: Inhibition of cell growth, MTT assay, U2-OS; type: cell-based; settings: Homo sapiens, U2OS
How it was run: as §1

Saos-2 = assay: Inhibition of cell growth, MTT assay, Saos-2; type: cell-based; settings: Homo sapiens; Saos-2, MTT assay
How it was run: as §1

COLO-205 = assay: Inhibition of cell growth, MTT assay, COLO-205; type: cell-based; settings: Homo sapiens; COLO-205, MTT assay
Description: (§2) The water-insoluble purple formazan product was then detected spectrophotometrically. […] Plates were incubated for four hours before addition of inhibitor compounds. Different concentrations of inhibitor compounds were added in 0.5% (v/v) dimethylsulfoxide (15 μL/well), and cells were incubated at 37° C. (5% CO2) for four to six days (depending on cell type). At the end of the incubation, MTT was added to a final concentration of 0.2 mg/mL, and cells were incubated for 4 hours more at 37° C. After centrifugation of the plates and removal of medium, the absorbance of the formazan (solubilized in dimethylsulfoxide) was measured at 540 nm.

M14 melanoma = assay: Inhibition of cell growth, MTT assay, M14 melanoma; type: cell-based; settings: Homo sapiens
Description: as §2

RXF-393 = assay: Inhibition of cell growth, MTT assay, RXF-393; type: cell-based; settings: Homo sapiens; RXF-393, MTT assay
Description: as §2

MCF-7 = assay: Inhibition of cell growth, MTT assay, MCF-7; type: cell-based; settings: MCF-7, MTT assay; for IC50 / IC90: Homo sapiens, MCF7; for % inhibition of growth in parentheses after >25: concentration not given
Description: as §2

MDA-MB-468 = assay: Inhibition of cell growth, MTT assay, MDA-MB-468; type: cell-based; settings: Homo sapiens; MDA-MB-468, MTT assay
Description: as §2

[3] = test system: phosphorylation of the retinoblastoma protein (pRb) in HCT-116 cells; assay: pRb immunoblotting (anti-Rb antibody); type: cell-based, human; settings: five micromolar of each compound for 12 hours, western blot
Description: (§3) The ability of compounds to inhibit phosphorylation of the retinoblastoma protein (pRb) was assessed by western blot analysis. An anti-Rb antibody was used to measure the conversion of hyper-phosphorylated pRb to hypo-phosphorylated pRb.
(§4) Human colon tumor cells (HCT-116 cells; 5×10^6) were plated on […] dishes and allowed to grow overnight. Five micromolar of each compound was added for 12 hours. The cells were then collected and centrifuged. The cell pellets were lysed by the addition of 100 μL lysis buffer (50 mM HEPES (pH 7.0), 250 mM NaCl, 5 mM ethylenediaminetetraacetic acid, 0.1% Nonidet P-40, 1 mM dithiothreitol, 2 mM sodium pyrophosphate, 1 mM sodium orthovanadate, 1 μg/ml aprotonin, 1 μg/ml leupeptin, 50 μg/ml phenylmethylsulfonyl fluoride). Forty micrograms of protein were separated by sodium dodecyl sulfate-polyacrylamide gel electrophoresis (SDS-PAGE) on a 6% gel. The proteins were transferred to nitrocellulose and blocked with 5% blocking buffer in Tris-buffered saline overnight. The anti-Rb antibody (Pharmingen), the anti-phospho-Rb (Ser 780) antibody (MBL), and secondary antibody were incubated for 1 hour at room temperature followed by three wash steps in 0.01% Tween-20 in Tris-buffered saline. The Rb protein was detected using chemiluminescence according to the manufacturer (Amersham).

[4] = test system: pRb phosphorylation at serine 780 in HCT-116 cells; assay: pRb immunoblotting (anti-phospho-Rb (ser780) antibody); type: cell-based, human; settings: five micromolar of each compound for 12 hours, western blot, anti-phospho-Rb (Ser 780) antibody
Description: as §3, §4

T3 sequence (P06493 whole entry): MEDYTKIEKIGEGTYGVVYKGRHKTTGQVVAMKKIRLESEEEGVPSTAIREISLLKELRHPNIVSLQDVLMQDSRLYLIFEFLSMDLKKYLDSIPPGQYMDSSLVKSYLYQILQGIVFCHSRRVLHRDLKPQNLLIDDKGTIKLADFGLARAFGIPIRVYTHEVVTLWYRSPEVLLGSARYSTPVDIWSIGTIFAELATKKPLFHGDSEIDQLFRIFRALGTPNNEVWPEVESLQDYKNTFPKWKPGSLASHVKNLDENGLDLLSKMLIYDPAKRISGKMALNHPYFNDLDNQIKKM
T3 sequence (P14635 whole entry partner): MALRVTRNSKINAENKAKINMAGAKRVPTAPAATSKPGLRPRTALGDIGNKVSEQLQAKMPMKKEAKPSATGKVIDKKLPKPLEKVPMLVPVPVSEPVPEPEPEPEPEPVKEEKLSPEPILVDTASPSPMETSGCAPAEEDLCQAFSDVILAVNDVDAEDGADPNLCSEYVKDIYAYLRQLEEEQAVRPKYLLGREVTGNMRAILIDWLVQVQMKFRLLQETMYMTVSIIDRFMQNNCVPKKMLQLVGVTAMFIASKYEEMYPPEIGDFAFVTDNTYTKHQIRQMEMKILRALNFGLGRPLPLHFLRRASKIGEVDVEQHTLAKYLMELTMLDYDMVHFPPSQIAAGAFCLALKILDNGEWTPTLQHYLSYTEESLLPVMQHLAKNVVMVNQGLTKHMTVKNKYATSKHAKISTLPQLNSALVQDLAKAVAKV
T1 sequence (P11802 whole entry): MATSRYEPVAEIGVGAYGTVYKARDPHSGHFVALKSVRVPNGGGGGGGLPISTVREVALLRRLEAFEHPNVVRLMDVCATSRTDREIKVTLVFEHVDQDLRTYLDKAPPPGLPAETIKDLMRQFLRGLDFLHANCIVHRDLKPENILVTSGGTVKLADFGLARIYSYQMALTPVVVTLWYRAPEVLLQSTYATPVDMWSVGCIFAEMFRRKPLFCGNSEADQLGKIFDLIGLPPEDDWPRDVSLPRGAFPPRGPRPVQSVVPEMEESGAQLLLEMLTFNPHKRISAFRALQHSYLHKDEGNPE
T1 sequence (P30281 whole entry partner): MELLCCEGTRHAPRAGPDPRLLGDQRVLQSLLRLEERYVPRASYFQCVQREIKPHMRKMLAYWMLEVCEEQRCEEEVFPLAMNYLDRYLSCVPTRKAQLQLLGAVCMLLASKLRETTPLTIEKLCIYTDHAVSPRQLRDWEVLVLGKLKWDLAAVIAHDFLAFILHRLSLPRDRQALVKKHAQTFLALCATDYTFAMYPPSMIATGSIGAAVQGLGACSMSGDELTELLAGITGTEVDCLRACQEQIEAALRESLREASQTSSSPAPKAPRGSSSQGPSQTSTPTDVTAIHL

| Compound | Ki [1] [nM] | Ki (CDK2/cyclin A) [nM] | Ki [2] [nM] | IC90 (HCT116) [nM] | IC50 (U2-OS) [nM] | IC90 (U2-OS) [nM] | IC50 (Saos-2) [nM] | IC90 (Saos-2) [nM] | IC50 (COLO-205) [nM] | IC90 (COLO-205) [nM] | IC50 (M14 melanoma) [nM] | IC90 (M14 melanoma) [nM] | IC50 (RXF-393) [nM] | IC90 (RXF-393) [nM] | IC50 (MCF-7) [nM] | IC90 (MCF-7) [nM] | IC50 (MDA-MB-468) [nM] | Inhibits pRb phosphorylation [3] | Inhibits pRb (ser 780) phosphorylation [4] | IC50 (HCT116) [nM] | further results |
| --- | --- | --- | --- | --- | --- | --- | --- | --- | --- | --- | --- | --- | --- | --- | --- | --- | --- | --- | --- | --- | --- |
| Cc1ccsc1C(=O)c1sc(Nc2ccc(S(N)(=O)=O)cc2)nc1N [C(48), 4-[4-Amino-5-(3-methyl-thiophene-2-carbonyl)-thiazol-2-ylamino]-benzenesulfonamide] | 14 | 11.1 | 15 | 700 | 1000 | 1500 | 420 | 750 | 290 | 600 | 600 | 1800 | 800 | 1600 | 2600 | > 25000 | 260 | + | + |  | % inhibition of growth in parentheses after >25 (MCF-7): (82%); IC90 (MDA-MB-468): 600 nM |
| Nc1nc(Nc2ccc(N3CCNCC3)cc2)sc1C(=O)c1c(F)cccc1F [J(2), [4-Amino-2-(4-piperazin-1-yl-phenylamino)-thiazol-5-yl]-(2,6-difluoro-phenyl)-methanone] | 6.4 | 135 | 405 | 730 | 1700 | 2800 | 580 | 1300 | 900 | 2700 | 650 | 2000 | 550 | 1100 | 480 | 1700 | 340 | + | + | 300 | IC90 (MDA-MB-468): 700 nM |
| Cc1cc(C(=O)c2sc(Nc3ccc(S(N)(=O)=O)cc3)nc2N)c(C)s1 [C(50), 4-[4-Amino-5-(2,5-dimethyl-thiophene-3-carbonyl)-thiazol-2-ylamino]-benzenesulfonamide] | 25.5 | 5.6 | 29 | 1600 | 2000 | 3000 | 1300 | 2800 |  |  |  |  |  |  | 3000 | > 25000 | 480 | + | + | 610 | % inhibition of growth in parentheses after >25 (MCF-7): (88%); IC90 (MDA-MB-468): 1500 nM |
| Cc1ccsc1C(=O)c1sc(Nc2ccc(N3CCNCC3)cc2)nc1N [H(1), [4-Amino-2-(4-piperazin-1-yl-phenylamino)-thiazol-5-yl]-(3-methyl-thiophen-2-yl)-methanone Trihydrochloride] | 8.2 | 370 | 681 | 1400 | 850 | 1500 | 730 | 1400 | 200 | 600 | 2400 | 9000 | 460 | 880 |  |  |  | + | + | 580 |  |
| Nc1nc(Nc2ccc(S(N)(=O)=O)cc2)sc1C(=O)c1c(F)cccc1F [C(85), 4-[4-Amino-5-(2,6-difluoro-benzoyl)-thiazol-2-ylamino]-benzenesulfonamide] | 13 | 5.7 | 2.2 | 560 | 1700 | 2800 | 280 | 670 | 240 | 580 | 710 | 2200 | 1200 | 3000 | 3900 | 13000 | 220 | + | + | 250 | IC90 (MDA-MB-468): 590 nM |
| Cc1ccsc1C(=O)c1sc(Nc2ccc(N3CCN(C)CC3)cc2)nc1N [C(87), {4-Amino-2-[4-(4-methyl-piperazin-1-yl)-phenylamino]-thiazol-5-yl}-3-methyl-thiophen-2-yl-methanone] | 9 | 607 | 826 | 2900 | 1800 | 4000 | 2000 | 4000 | 390 | 1700 | 1500 | 4200 | 1500 | 2300 |  |  |  | + | + | 950 |  |
| CN1CCN(c2ccc(Nc3nc(N)c(C(=O)c4c(Cl)cc(C(F)(F)F)cc4Cl)s3)cc2)CC1 [C(81)] | 12.3 | 872 | 1240 | 20000 | 7900 | 12000 | 13000 | 22000 | > 5000 |  | 3800 | > 5000 | > 5000 |  | 3900 | 16000 | 4700 | + | + | 10000 | IC90 (MDA-MB-468): 9300 nM |
